From article PMC8284454, “In Vitro Profiling of Antitubercular Compounds by Rapid, Efficient, and Nondestructive Assays Using Autoluminescent Mycobacterium tuberculosis” (Antimicrobial Agents and Chemotherapy, 2021)
Converted amounts (≈) assume the structure as drawn. “Also recorded” adds a separate entry of the source. Read-outs that look alike come from different tables or passages of the source. Marks after values point to notes of the source that are not given here. *1 amine or outer side, *2 acyl side, *3 side chain or, on linkers, in order; H or OH if unused. Where a SMILES comes first, the peptide text is derived from it. Bridges are numbered along the chain shown (N, C = ends). [ ]: non-standard residue; d: D form. The star is where a group is joined. Phe(3R-OH) = O=C([C@@H](N[*:1])[C@H](O[*:3])c1ccccc1)[*:2]; NMeTrp(4-OMe) = CN[C@@H](Cc1c[nH]c2cccc(OC)c12)C(=O)O; NMeaIle = CC[C@@H](C)[C@H](NC)C(=O)O; NMe2Val = CC(C)[C@@H](C(=O)*)N(C)C; NMeT = CN[C@H](C(=O)O)[C@@H](C)O; NMeL = CN[C@@H](CC(C)C)C(=O)O; NMeV = CN[C@H](C(=O)O)C(C)C

Columns and labels:
[1] = tested on: macrophage-internalized M. tuberculosis; conditions: read-out: Literature reported EC90, cited from earlier work
[2] = tested on: J774-internalized M. tuberculosis (H37Rv); test: intracellular activity by luminescence (EC90); format: cell-based, Mycobacterium tuberculosis; conditions: for EC90: RLU; for onset of growth inhibition of internalized M. tuberculosis: early = EC90 obtainable by day 3, late = EC90 obtainable by day 5 or later
[3] = tested on: M. tuberculosis H37Rv_LuxABCDE; test: microplate alamarBlue assay (MABA) MIC; conditions: 90% reduction of fluorescence, 7 days, 7H12 medium; SD from three independent experiments
[4] = tested on: M. tuberculosis H37Rv_LuxABCDE; test: luminescence-based MBC assay (LMBCA) / time-kill; format: cell-based, Mycobacterium tuberculosis; conditions: for MBC: Mycobacterium tuberculosis; for time and/or concentration dependence of bactericidal activity: time-kill curves up to day 21; for change of MBC values over time: over 21 days, luminescence time-kill
[5] = tested on: M. tuberculosis H37Rv_LuxABCDE; test: luminescence-based MIC assay (LMICA); conditions: 90% reduction of luminescence, 7 days, 7H12 medium; SD from three independent experiments
[6] = tested on: M. tuberculosis H37Rv_LuxABCDE; test: microbe, parasite or virus in culture; format: cell-based, Mycobacterium tuberculosis; conditions: day 7, SD from three independent experiments; for MBC: Mycobacterium tuberculosis, read-out: MBC (±SD) via CFU
[7] = tested on: M. tuberculosis H37Rv_LuxABCDE; format: cell-based, Mycobacterium tuberculosis; conditions: 1:10,000-fold dilution
[8] = tested on: M. tuberculosis H37Rv_LuxABCDE; test: postantibiotic effect by luminescence (RLU); format: cell-based, Mycobacterium tuberculosis; conditions: 1.5 log10 RLU increase, 1:10,000-fold dilution
[9] = tested on: J774 infected with M. tuberculosis strain Erdman; conditions: read-out: Literature reported EC90; cited from earlier work
[10] = Mycobacterium tuberculosis, H37RV, 72 h, EC90, day 3, J774 macrophages, read-out: Intracellular activity, EC90 (±SD) Day 3
[11] = Mycobacterium tuberculosis, H37RV, 120 h, EC90, day 5, J774 macrophages, read-out: Intracellular activity, EC90 (±SD) Day 5
[12] = Mycobacterium tuberculosis, H37RV, 168 h, EC90, day 7, J774 macrophages, read-out: Intracellular activity, EC90 (±SD) Day 7
[13] = 168 h, day 7, 99% reduction in RLU vs T0, SD from three independent experiments, read-out: MBC (±SD) via luminescence
[14] = 336 h, day 14, 99% reduction in RLU vs T0, read-out: MBC (±SD) by luminescence on day 14
[15] = 504 h, day 21, 99% reduction in RLU vs T0, read-out: MBC (±SD) by luminescence on day 21
[16] = day 7, 99% reduction in RLU vs T0, SD from three independent experiments

| SMILES | EC90 [2, 10] [µM] | EC90 [2, 11] [µM] | EC90 [2, 12] [µM] | EC90 ([1]; EC90) [µM] | MIC (±SD) MABA [3] | MBC [4, 13] [µM] | MBC [4, 14] [µM] | MBC [4, 15] [µM] | time and/or concentration dependence of bactericidal activity [4] | MIC (±SD) LMICA [5] | onset of growth inhibition of internalized M. tuberculosis [2] | MBC [6] [µM] | MBC (±SD) via luminescence [4, 16] | change of MBC values over time [4] | Toxicity against infected J774, percent inhibition at the highest tested concentration (infected J774; day 7, 50 μM) | further results |
| --- | --- | --- | --- | --- | --- | --- | --- | --- | --- | --- | --- | --- | --- | --- | --- | --- |
| NCC[C@H](O)C(=O)N[C@@H]1C[C@H](N)[C@@H](O[C@H]2O[C@H](CN)[C@@H](O)[C@H](O)[C@H]2O)[C@H](O)[C@H]1O[C@H]1O[C@H](CO)[C@@H](O)[C@H](N)[C@H]1O [Amikacin] | > 34 | > 34 | > 34 | – | – | – | – | – | – | – | – | – | – | – | – | EC90 ([1]; EC90, high-content imaging on day 5): > 26 µM; inhibition at 34 µM ([2]; Mycobacterium tuberculosis, H37RV, 72 h, day 3, 34 μM, read-out: percent inhibition at the highest tested concentration, intracellular activity Day 3): 4%; inhibition at 34 µM ([2]; Mycobacterium tuberculosis, H37RV, 120 h, day 5, 34 μM, read-out: percent inhibition at the highest tested concentration, intracellular activity Day 5): 34%; inhibition at 34 µM ([2]; Mycobacterium tuberculosis, H37RV, 168 h, day 7, 34 μM, read-out: percent inhibition at the highest tested concentration, intracellular activity Day 7): 49% |
| COc1nc2ccc(Br)cc2cc1[C@@H](c1ccccc1)[C@@](O)(CCN(C)C)c1cccc2ccccc12 [Bedaquiline] | 0.89 | 0.29 | 0.22 | 0.1 | 0.021 (0.01) μM | 0.13 (≈ 0.0722 µg/mL) | 0.11 (≈ 0.0611 µg/mL) | 0.12 (≈ 0.0667 µg/mL) | primarily concentration dependent | 0.028 (0.01) μM | early growth inhibition | 0.16 (≈ 0.0889 µg/mL) | – | – | – | Toxicity against infected J774, percent inhibition at the highest tested concentration (infected J774; day 7, 2 μM): 2 (7)* percent |
| CC(C)/N=c1\cc2n(-c3ccc(Cl)cc3)c3ccccc3nc-2cc1Nc1ccc(Cl)cc1 [Clofazimine] | 19 | 6.69 | 3.7 | ~2.1 | 0.014 (0.02) μM | 1.81 (≈ 0.857 µg/mL) | 0.82 (≈ 0.388 µg/mL) | 1.01 (≈ 0.478 µg/mL) | both time and concentration dependent | – | early growth inhibition | > 4 | 1.8 (0.19) μM | decreased | 50 (45)* percent | – |
| CC[C@@H](C)[C@@H](C(=O)N[C@@H]1C(=O)N(C)[C@@H]([C@@H](C)O)C(=O)N[C@@H](C(C)C)C(=O)N(C)[C@@H](CC(C)C)C(=O)N[C@@H](C(C)C)C(=O)N(C)[C@@H](C(C)C)C(=O)N(C)[C@@H](Cc2c[nH]c3cccc(OC)c23)C(=O)N[C@@H](C(C)C)C(=O)N[C@@H]([C@H](O)c2ccccc2)C(=O)N[C@@H](C(C)C)C(=O)O[C@@H]1C)N(C)C(=O)[C@@H](NC(=O)[C@H](C(C)C)N(C)C)C(C)C [Ecumicin] (NMe2Val-V[NMeaIle]T[NMeT]V[NMeL]V[NMeV][NMeTrp(4-OMe)]V[Phe(3R-OH)]V; ester 3-C) | – | – | – | – | 0.081 (0.02) μM | – | – | – | mainly time dependent | 0.074 (0.002) μM | early growth inhibition | – | 0.22 (0.1) μM | decreased | – | PAE 1× MIC CFU/ml ([7]; 3 h exposure at 1× MIC): 0 h; PAE 10× MIC CFU/ml ([7]; 3 h exposure at 10× MIC): 10 h; PAE 100× MIC CFU/ml ([7]; 3 h exposure at 100× MIC): 80 h; PAE 1× MIC RLU ([8]; 3 h exposure at 1× MIC): 0 h; PAE 10× MIC RLU ([8]; 3 h exposure at 10× MIC): 12 h; PAE 100× MIC RLU ([8]; 3 h exposure at 100× MIC): 96 h; bactericidal or bacteriostatic activity [4]: strong bactericidal activity; also recorded: classical bactericidal dose response; MBC (±SD) by luminescence on day 14 ([4]; day 14, 99% reduction in RLU vs T0): 0.20 (0.09) µM; MBC (±SD) by luminescence on day 21 ([4]; day 21, 99% reduction in RLU vs T0): 0.12 (0.04) µM; Toxicity against infected J774, percent inhibition at the highest tested concentration (infected J774; day 7, 6.3 μM): 6.3 (11)* percent; EC90 ([2]; EC90, day 3, J774 macrophages, read-out: Intracellular activity, EC90 (±SD) Day 3): 0.74 µM; EC90 ([2]; EC90, day 5, J774 macrophages, read-out: Intracellular activity, EC90 (±SD) Day 5): 0.57 µM; EC90 ([2]; EC90, day 7, J774 macrophages, read-out: Intracellular activity, EC90 (±SD) Day 7): 0.28 µM; MBC (±SD) via CFU [6]: 0.10 (±0.03) μM; EC90 [9]: ~0.12 µM |
| CC[C@@H](CO)NCCN[C@@H](CC)CO [Ethambutol] | > 50 | 44 | 23.8 | 16.7 | 2.0 (0.41) μM | 9.18 (≈ 1.88 µg/mL) | 3.17 (≈ 0.648 µg/mL) | 3.28 (≈ 0.67 µg/mL) | mainly time dependent | 1.3 (0.38) μM | late growth inhibition | 7.9 (≈ 1.61 µg/mL) | 9.2 (2.7) μM | decreased | 50 (0)* percent | inhibition at 50 µM ([2]; Mycobacterium tuberculosis, H37RV, 72 h, day 3, 50 μM, read-out: percent inhibition at the highest tested concentration, intracellular activity Day 3): 68% |
